The record followed here is ChEMBL document CHEMBL1127986, “Synthesis and Biological Evaluation of New Leukotriene Analogs” (Bioorg Med Chem Lett, 1994).

Assay [1] addresses T1, Polyunsaturated fatty acid 5-lipoxygenase (Homo sapiens, UniProt P09917).
T1 sequence (P09917 whole entry): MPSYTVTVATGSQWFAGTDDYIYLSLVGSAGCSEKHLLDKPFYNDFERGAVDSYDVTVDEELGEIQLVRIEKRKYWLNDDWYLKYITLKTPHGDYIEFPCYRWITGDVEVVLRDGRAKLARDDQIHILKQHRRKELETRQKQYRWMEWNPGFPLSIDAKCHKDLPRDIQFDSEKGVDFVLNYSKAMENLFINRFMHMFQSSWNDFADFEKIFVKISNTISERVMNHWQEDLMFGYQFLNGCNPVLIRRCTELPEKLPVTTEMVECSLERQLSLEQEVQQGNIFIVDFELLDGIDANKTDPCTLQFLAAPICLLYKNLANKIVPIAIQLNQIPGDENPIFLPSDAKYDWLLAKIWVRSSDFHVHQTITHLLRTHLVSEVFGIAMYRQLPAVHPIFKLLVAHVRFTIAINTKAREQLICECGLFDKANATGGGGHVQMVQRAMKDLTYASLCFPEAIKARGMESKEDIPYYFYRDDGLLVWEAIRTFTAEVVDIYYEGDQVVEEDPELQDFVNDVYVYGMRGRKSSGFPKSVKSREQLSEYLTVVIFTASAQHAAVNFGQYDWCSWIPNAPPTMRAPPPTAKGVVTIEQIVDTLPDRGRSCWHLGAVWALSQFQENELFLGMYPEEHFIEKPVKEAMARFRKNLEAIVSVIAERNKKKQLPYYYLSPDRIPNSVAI
As to the kind of experiment: Inhibition of 5-lipoxygenase was evaluated in human polymorphonuclear leukocytes stimulated by calcium ionophore A-23187 for formation of LTB4; NA means Not active. Format: cell-based.

In assay [2] the target is T2, Arachidonate 12-lipoxygenase (Rattus norvegicus) (UniProt Q02759).
T2 sequence (whole entry): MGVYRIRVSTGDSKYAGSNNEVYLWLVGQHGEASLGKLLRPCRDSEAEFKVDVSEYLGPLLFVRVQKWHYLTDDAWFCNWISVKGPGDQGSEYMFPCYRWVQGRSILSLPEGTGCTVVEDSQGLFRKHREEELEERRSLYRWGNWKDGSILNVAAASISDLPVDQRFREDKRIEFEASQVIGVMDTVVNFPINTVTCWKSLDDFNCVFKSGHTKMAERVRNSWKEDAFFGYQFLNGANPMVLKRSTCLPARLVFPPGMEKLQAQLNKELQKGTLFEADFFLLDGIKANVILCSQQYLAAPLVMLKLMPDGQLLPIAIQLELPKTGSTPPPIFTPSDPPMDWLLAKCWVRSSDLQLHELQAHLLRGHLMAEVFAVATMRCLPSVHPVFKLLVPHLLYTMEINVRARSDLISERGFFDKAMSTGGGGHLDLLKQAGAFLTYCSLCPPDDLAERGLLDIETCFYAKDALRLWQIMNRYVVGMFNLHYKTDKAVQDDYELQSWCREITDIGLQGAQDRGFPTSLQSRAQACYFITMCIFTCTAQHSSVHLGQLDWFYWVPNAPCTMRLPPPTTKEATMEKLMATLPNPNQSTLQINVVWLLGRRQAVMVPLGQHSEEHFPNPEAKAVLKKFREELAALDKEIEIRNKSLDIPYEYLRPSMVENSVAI
As to the kind of experiment: Inhibition of 12-lipoxygenase was evaluated in rat platelets stimulated by thrombin up to a concentration of 10 uM; NE means No effect.

For assay [3], the target named is T1, Polyunsaturated fatty acid 5-lipoxygenase. As to the kind of experiment: Inhibition of 5-lipoxygenase was evaluated in human polymorphonuclear leukocytes stimulated by calcium ionophore A-23187 for formation of 5-HETE; NA means Not active. It counts as cell-based.
The target of assay [4] is Cyclooxygenase (Rattus norvegicus) (UniProt P35355+Q63921). The assay can be described thus: Inhibition of cyclooxygenase was evaluated in rat platelets stimulated by thrombin up to a concentration of 10 uM; NE means No effect.
Assay [5] concerns the target T3, Polyunsaturated fatty acid 5-lipoxygenase (Homo sapiens) (UniProt P09917).
T3 sequence (whole entry): T1 sequence (P09917 whole entry)
The assay can be described thus: Inhibition of 5-lipoxygenase was evaluated in human polymorphonuclear leukocytes stimulated by calcium ionophore A-23187 for formation of 5-HETE at 10 uM. Format: cell-based.

Assay [6] deals with T3, Polyunsaturated fatty acid 5-lipoxygenase (Homo sapiens). As to the kind of experiment: Inhibition of 5-lipoxygenase was evaluated in human polymorphonuclear leukocytes stimulated by calcium ionophore A-23187 for formation of LTB4 at 10 uM. It counts as cell-based.
Assay [7] shares this target. The assay can be described thus: Inhibition of 5-lipoxygenase was evaluated in human polymorphonuclear leukocytes stimulated by calcium ionophore A-23187 for formation of 5-HETE at 10 uM; NA means Inactive. It counts as cell-based.
For assay [8] the target is unchanged. As to the kind of experiment: Inhibition of 5-lipoxygenase was evaluated in human polymorphonuclear leukocytes stimulated by calcium ionophore A-23187 for formation of LTB4 at 10 uM; NA means Inactive. It counts as cell-based.
Assay [9] deals with T1, Polyunsaturated fatty acid 5-lipoxygenase. The assay can be described thus: Inhibition of 5-lipoxygenase was evaluated in human polymorphonuclear leukocytes stimulated by calcium ionophore A-23187 for formation of LTB4. Format: cell-based.
Assay [10] shares this target. The assay can be described thus: Inhibition of 5-lipoxygenase was evaluated in human polymorphonuclear leukocytes stimulated by calcium ionophore A-23187 for formation of 5-HETE. It counts as cell-based.

Structures are written as SMILES. Activity calls are given as the source filed them. The calls are words filed in the database; no cut-off is given here.

Turning to `CCCCC/C=C\C\C=C/C=C/C=C/C(CCC/C=N/O)OC` (centres undefined), the IC50 entry in [1] and in assay [3] was “Not Active” each time. In addition, the result in [2] and in assay [4] was inactive.
On to `CCCCC/C=C\C\C=C/C=C/C=C/C(O)CC/C=N\O` (centres undefined), for which the result in assay [2] and in [4] was inactive. Moreover, the inhibition in [5] and in assay [6] was 95% in each case.
With `CCCCC/C=C\C\C=C/C=C/C=C/C(O)CCC/C=N/OC` (centres undefined), the outcome in [2] and in assay [4] was inactive. Further, the inhibition in [5] and in [6] was 95% each time.
For `CCCCC/C=C\Cc1ccc(/C=C/C(O)CCC/C=N\O)cc1` (centres undefined), the inhibition entry in [7] and in assay [8] was “inactive” throughout. In addition, the result in assay [2] and in [4] was inactive.
Consider `CCCCC/C=C\C\C=C/C=C/C=C/C(O)CCCCC` (centres undefined), for which the inhibition in [5] and in assay [6] was 95% each time.
Regarding `CCCCC/C=C\C/C=C\C=C\C(O)CCC/C=N/O` (centres undefined), the inhibition in [5] was less than 40%; in assay [6], 60%.
As to `CCCCC/C=C\C\C=C/C=C/C=C/C(O)CCC/C=N/O` (racemic), the results for the half-maximal inhibitory concentration (IC50) in [9] and in assay [10] were 4.4 µM and 5.4 µM, respectively. Also, the result in assay [2] and in assay [4] was inactive.
In the case of `CCCCC/C=C\C\C=C/C=C/C=C/[C@H](O)CCC/C=N/O`, the IC50 turned out to be 3.3 µM in [9] and 2.8 µM in assay [10]. In addition, the outcome in [2] and in [4] was inactive.
Take `CCCCC/C=C\C\C=C/C=C/C=C/[C@@H](O)CCC/C=N/O`: the IC50 result in [1] and in assay [3] was “Not Active” in each case. Also, the outcome in [2] and in assay [4] was inactive.
Consider `CCCCCCCC\C=C/C=C/C=C/C(O)CCC/C=N/O` (centres undefined), for which the half-inhibitory concentration (IC50) result in assay [1] and in [3] was “Not Active” throughout.

Usually IC50 stands for the concentration needed to halve the response being measured. As a reminder, the inhibition is the relative decrease from the control value, in per cent.
